Measurements as given in PubChem BioAssay AID248 (DTP/NCI, 2004).
“And” between values parts separate entries of the source, which are not always exact repeats. Equal values may be shown once. Inconclusive results and toxic doses are left out.

Test system: L1210 leukemia ip in BDF1 mice, survival T/C
Experiment: NCI In Vivo Anticancer Drug Screen. Data for tumor model L1210 Leukemia (intraperitoneal) in B6D2F1 (BDF1) mice
Conditions: endpoint: mean survival time, higher = longer survival
In short: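 Antitumor effect is assessed in tumor-bearing animals. Survival in the compound arm is compared with a vehicle-dosed control arm and expressed as their quotient.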

[1] = dose: 100.0 mg/kg/injection, schedule: Q01DX009 (ip), vehicle: Klucel (hydroxypropylcellulose) (HPC)
[2] = dose: 400.0 mg/kg/injection, schedule: Q01DX009 (ip), vehicle: Klucel (hydroxypropylcellulose) (HPC)
[3] = dose: 60.0 mg/kg/injection, schedule: Q01DX Z (ip), vehicle: saline
[4] = dose: 100.0 mg/kg/injection, schedule: Q01DX001 (ip), vehicle: saline
[5] = dose: 400.0 mg/kg/injection, schedule: Q01DX001 (ip), vehicle: saline
[6] = dose: 200.0 mg/kg/injection, schedule: Q01DX001 (ip), vehicle: saline
[7] = dose: 15.0 mg/kg/injection, schedule: Q01DX Z (ip), vehicle: saline
[8] = dose: 30.0 mg/kg/injection, schedule: Q01DX Z (ip), vehicle: saline

## CC(=O)OCC1OC(n2cnc3c(F)nc(F)nc32)C(OC(C)=O)C1OC(C)=O (configuration not stated)
dose: 100.0 mg/kg/injection, schedule: Q01DX001 (sc), vehicle: olive oil, sesame oil, peanut oil
  T/C: 104 % of control
dose: 200.0 mg/kg/injection, schedule: Q01DX001 (sc), vehicle: olive oil, sesame oil, peanut oil
  T/C: 104 % of control
dose: 400.0 mg/kg/injection, schedule: Q01DX001 (sc), vehicle: olive oil, sesame oil, peanut oil
  T/C: 100 % of control

## CC/C(=N\N=C(/CC)c1ccccc1)c1ccccc1
dose: 25.0 mg/kg/injection, schedule: Q01DX009 (ip), vehicle: Klucel (hydroxypropylcellulose) (HPC)
  T/C: 98 % of control
dose: 50.0 mg/kg/injection, schedule: Q01DX009 (ip), vehicle: Klucel (hydroxypropylcellulose) (HPC)
  T/C: 101 % of control
[1]
  T/C: 98 % of control
dose: 100.0 mg/kg/injection, schedule: Q04DX002 (ip), vehicle: Klucel (hydroxypropylcellulose) (HPC)
  T/C: 96 % of control
dose: 200.0 mg/kg/injection, schedule: Q04DX002 (ip), vehicle: Klucel (hydroxypropylcellulose) (HPC)
  T/C: 107 % of control
[2]
  T/C: 86 % of control
dose: 400.0 mg/kg/injection, schedule: Q04DX002 (ip), vehicle: Klucel (hydroxypropylcellulose) (HPC)
  T/C: 91 % of control

## CCOc1ccc(C(=O)/C=C\c2ccc(N(CC)CC)cc2)cc1
[1]
  T/C: 96 % of control
dose: 200.0 mg/kg/injection, schedule: Q01DX009 (ip), vehicle: Klucel (hydroxypropylcellulose) (HPC)
  T/C: 93 % of control
[2]
  T/C: 91 % of control

## CCN(CCO)CC(C)Nc1ccc([N+](=O)[O-])c2sc3ccccc3c(=O)c12 (configuration not stated)
dose: 1.5 mg/kg/injection, schedule: Q01DX Z (ip), vehicle: carboxymethylcellulose (CMC)
  T/C: 96 % of control
dose: 3.0 mg/kg/injection, schedule: Q01DX Z (ip), vehicle: carboxymethylcellulose (CMC)
  T/C: 107 % of control
dose: 3.5 mg/kg/injection, schedule: Q01DX Z (ip), vehicle: saline
  T/C: 101 % of control
dose: 5.3 mg/kg/injection, schedule: Q01DX Z (ip), vehicle: saline
  T/C: 115 % of control
dose: 6.0 mg/kg/injection, schedule: Q01DX Z (ip), vehicle: carboxymethylcellulose (CMC)
  T/C: 100 % of control
dose: 8.0 mg/kg/injection, schedule: Q01DX Z (ip), vehicle: saline
  T/C: 104 % of control
dose: 10.0 mg/kg/injection, schedule: Q01DX Z (ip), vehicle: other
  T/C: 107 % of control
dose: 12.0 mg/kg/injection, schedule: Q01DX Z (ip), vehicle: carboxymethylcellulose (CMC)
  T/C: 110 % of control
dose: 12.0 mg/kg/injection, schedule: Q01DX Z (ip), vehicle: saline
  T/C: 105 % of control and 89 % of control
dose: 18.0 mg/kg/injection, schedule: Q01DX Z (ip), vehicle: saline
  T/C: 91 % of control
dose: 30.0 mg/kg/injection, schedule: Q01DX Z (ip), vehicle: other
  T/C: 156 % of control
dose: 40.0 mg/kg/injection, schedule: Q01DX Z (ip), vehicle: saline
  T/C: 166 % of control
[3]
  T/C: 104 % of control
dose: 90.0 mg/kg/injection, schedule: Q01DX Z (ip), vehicle: other
  T/C: 121 % of control
dose: 90.0 mg/kg/injection, schedule: Q01DX Z (ip), vehicle: saline
  T/C: 89 % of control
dose: 91.5 mg/kg/injection, schedule: Q01DX Z (ip), vehicle: saline
  T/C: 160 % of control
[4]
  T/C: 114 % of control
dose: 137.0 mg/kg/injection, schedule: Q01DX Z (ip), vehicle: saline
  T/C: 124 % of control
[5]
  T/C: 167 % of control and 175 % of control

## Cc1ccccc1N(C)C(=S)c1ccc(Cl)cc1
dose: 100.0 mg/kg/injection, schedule: Q01DX001 (ip), vehicle: Klucel (hydroxypropylcellulose) (HPC)
  T/C: 105 % of control
dose: 100.0 mg/kg/injection, schedule: Q04DX003 (ip), vehicle: Klucel (hydroxypropylcellulose) (HPC)
  T/C: 92 % of control
dose: 200.0 mg/kg/injection, schedule: Q01DX001 (ip), vehicle: Klucel (hydroxypropylcellulose) (HPC)
  T/C: 102 % of control
dose: 200.0 mg/kg/injection, schedule: Q04DX003 (ip), vehicle: Klucel (hydroxypropylcellulose) (HPC)
  T/C: 94 % of control
dose: 400.0 mg/kg/injection, schedule: Q01DX001 (ip), vehicle: Klucel (hydroxypropylcellulose) (HPC)
  T/C: 110 % of control
dose: 400.0 mg/kg/injection, schedule: Q04DX003 (ip), vehicle: Klucel (hydroxypropylcellulose) (HPC)
  T/C: 96 % of control

## Nc1ncnc2c1nc(N)n2C1OC(CO)C(O)C1O (configuration not stated)
[4]
  T/C: 115 % of control and 104 % of control
[6]
  T/C: 123 % of control and 104 % of control
[5]
  T/C: 98 % of control

## COc1ccc(C(=NN=C(N)N)c2ccc(OC)cc2)cc1
[7]
  T/C: 96 % of control
[8]
  T/C: 100 % of control
dose: 30.0 mg/kg/injection, schedule: Q01DX Z (oral), vehicle: saline
  T/C: 105 % of control
[3]
  T/C: 96 % of control
dose: 60.0 mg/kg/injection, schedule: Q01DX Z (oral), vehicle: saline
  T/C: 97 % of control
dose: 120.0 mg/kg/injection, schedule: Q01DX Z (oral), vehicle: saline
  T/C: 105 % of control
dose: 240.0 mg/kg/injection, schedule: Q01DX Z (oral), vehicle: saline
  T/C: 92 % of control
dose: 480.0 mg/kg/injection, schedule: Q01DX Z (oral), vehicle: saline
  T/C: 94 % of control

## CN=C(N)c1ccc(N=C(N)c2cccc(C(N)=Nc3ccc(C(N)=NC)cc3)c2)cc1
[7]
  T/C: 97 % of control
[8]
  T/C: 120 % of control

## CC1=CCCC1
dose: 100.0 mg/kg/injection, schedule: Q01DX009 (ip), vehicle: saline
  T/C: 101 % of control
dose: 200.0 mg/kg/injection, schedule: Q01DX009 (ip), vehicle: saline
  T/C: 95 % of control
dose: 400.0 mg/kg/injection, schedule: Q01DX009 (ip), vehicle: saline
  T/C: 95 % of control

## COC1CCC2CCN(C)C(Cc3ccc(Oc4ccc(CC5C6CC(OC)CCC6CCN5C)cc4)cc3)C2C1 (configuration not stated)
dose: 0.39 mg/kg/injection, schedule: Q01DX009 (ip), vehicle: saline with Tween-80
  T/C: 96 % of control
dose: 0.78 mg/kg/injection, schedule: Q01DX009 (ip), vehicle: saline with Tween-80
  T/C: 96 % of control and 108 % of control
dose: 1.56 mg/kg/injection, schedule: Q01DX009 (ip), vehicle: saline with Tween-80
  T/C: 108 % of control
dose: 3.13 mg/kg/injection, schedule: Q01DX009 (ip), vehicle: saline with Tween-80
  T/C: 102 % of control

## CC(C)CC(CC(C)C)OB(OC(CC(C)C)CC(C)C)OC(CC(C)C)CC(C)C
dose: 50.0 mg/kg/injection, schedule: Q01DX001 (ip), vehicle: other
  T/C: 96 % of control
dose: 100.0 mg/kg/injection, schedule: Q01DX001 (ip), vehicle: other
  T/C: 96 % of control
dose: 200.0 mg/kg/injection, schedule: Q01DX001 (ip), vehicle: other
  T/C: 96 % of control
dose: 400.0 mg/kg/injection, schedule: Q01DX001 (ip), vehicle: other
  T/C: 90 % of control

## CC(=O)OC1=CC(=O)C(OC(C)=O)=C(c2c(C)cc(C)c(Br)c2C)C1=O
dose: 50.0 mg/kg/injection, schedule: Q01DX001 (ip), vehicle: saline
  T/C: 91 % of control
[4]
  T/C: 95 % of control
[6]
  T/C: 101 % of control

## Cc1ccc(-c2nc3ncnc(N)c3[nH]2)cc1N
dose: 100.0 mg/kg/injection, schedule: Q04DX003 (ip), vehicle: saline
  T/C: 89 % of control
dose: 200.0 mg/kg/injection, schedule: Q04DX003 (ip), vehicle: saline
  T/C: 94 % of control
dose: 400.0 mg/kg/injection, schedule: Q04DX003 (ip), vehicle: saline
  T/C: 94 % of control

## CN(CC(=O)c1ccc(-c2ccccc2)cc1)C(=O)c1ccccc1
dose: 75.0 mg/kg/injection, schedule: Q04DX003 (ip), vehicle: Klucel (hydroxypropylcellulose) (HPC)
  T/C: 96 % of control
dose: 150.0 mg/kg/injection, schedule: Q04DX003 (ip), vehicle: Klucel (hydroxypropylcellulose) (HPC)
  T/C: 89 % of control
dose: 300.0 mg/kg/injection, schedule: Q04DX003 (ip), vehicle: Klucel (hydroxypropylcellulose) (HPC)
  T/C: 89 % of control

## CSc1nc(N)c(N=Nc2ccc(S(=O)(=O)Nc3ccccn3)cc2)c(=O)[nH]1
dose: 100.0 mg/kg/injection, schedule: Q01DX001 (ip), vehicle: carboxymethylcellulose (CMC)
  T/C: 92 % of control
dose: 200.0 mg/kg/injection, schedule: Q01DX001 (ip), vehicle: carboxymethylcellulose (CMC)
  T/C: 101 % of control
dose: 400.0 mg/kg/injection, schedule: Q01DX001 (ip), vehicle: carboxymethylcellulose (CMC)
  T/C: 95 % of control

## c1ccc(N2N=NC3C4CCC(C4)C32)cc1 (configuration not stated)
dose: 100.0 mg/kg/injection, schedule: Q01DX009 (ip), vehicle: saline with Tween-80
  T/C: 108 % of control
dose: 200.0 mg/kg/injection, schedule: Q01DX009 (ip), vehicle: saline with Tween-80
  T/C: 98 % of control
dose: 400.0 mg/kg/injection, schedule: Q01DX009 (ip), vehicle: saline with Tween-80
  T/C: 104 % of control
